Data published in patent publication US20120115852A1, “HETEROCYCLIC COMPOUNDS AS AUTOTAXIN INHIBITORS” (Merck Patent Gesellschaft Mit Beschrankter Haftung, priority 2009, published 2012).

Biological target: T1, recombinant autotaxin (Homo sapiens, UniProt Q13822)
T1 construct: made in house; host or cells: Hi5 insect cells (baculovirus)
Experiment: Autotaxin test (enzyme test), Amplex Red fluorescence with LPC substrate
Type: biochemical
Details: autotaxin inhibition (enzyme test); for remaining activity at 10 µM: 10 μM compound, read-out: % Control at 10 μM
In short: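 Purified recombinant autotaxin (baculovirus Hi5-expressed) pre-incubated with compound 30 min at 22° C, then LPC (final 75 μM) added and reacted 90 min at 37° C in Tris pH 8 buffer with CaCl2. Choline released was coupled via alkaline phosphatase, choline oxidase and peroxidase to Amplex Red; resorufin fluorescence read in kinetic mode (ex 485/em 612 nm).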

| SMILES | remaining activity at 10 µM | IC50 |
| --- | --- | --- |
| O=C1Nc2ccc(-c3ccccc3F)cc2C(=O)N2CCN(C(=O)[C@@H](O)c3ccccc3)C[C@H]12 [Compound B3] | 47% |  |
| CC(C)(C)CC(=O)N1CCN2C(=O)c3cc(-c4ccccc4F)ccc3NC(=O)[C@@H]2C1 [Compound A17, (S)-2-(3,3-Dimethylbutyryl)-7-(2-fluorophenyl)-1,3,4,11a-tetrahydro-2H,10H-2,4a,10-triaza-dibenzo[a,d]cycloheptene-5,11-dione] |  | 0.1 to 1 µM |
| O=C1Nc2ccc(-c3ccc(Cl)cc3)cc2C(=O)N2CCN(C(=O)[C@@H]3CCCCN3)CC12 (stereo partly drawn) [Compound A21, 7-(4-Chlorophenyl)-2-((S)-piperidine-2-carbonyl)-1,3,4,11a-tetrahydro-2H,10H-2,4a,10-triaza-dibenzo[a,d]cycloheptene-5,11-dione] | 82% | > 1 µM |
| O=C1Nc2ccc(-c3ccc(Cl)cc3F)cc2C(=O)N2CCN(C(=O)[C@@H]3CCCN3C3CCCCC3)C[C@H]12 [Compound A121, (R)-7-(4-Chloro-2-fluorophenyl)-2-((S)-1-cyclohexyl-pyrrolidine-2-carbonyl)-1,3,4,11a-tetrahydro-2H,10H-2,4a,10-triazadibenzo[a,d]cycloheptene-5,11-dione] | 32% | > 1 µM |
| O=C1Nc2ccc(-c3ccc(Cl)cc3)cc2C(=O)N2CCN(C(=O)[C@@H]3CCCN3)CC12 (stereo partly drawn) [Compound A114, 7-(4-Chlorophenyl)-2-((S)-pyrrolidine-2-carbonyl)-1,3,4,11a-tetrahydro-2H,10H-2,4a,10-triaza-dibenzo[a,d]cycloheptene-5,11-dione] | 28% | > 1 µM |
| CC(C)(C)CC(=O)N1CCN2C(=O)c3cc(-c4ccc(Cl)cc4Cl)ccc3NC(=O)C2C1 (stereo not shown) [Compound A78, 7-(2,4-Dichlorophenyl)-2-(3,3-dimethylbutyryl)-1,3,4,11a-tetrahydro-2H,10H-2,4a,10-triaza-dibenzo[a,d]cycloheptene-5,11-dione] | 16% | > 1 µM |
| O=C1Nc2ccc(-c3ccc(Cl)cc3F)cc2C(=O)N2CCN(C(=O)[C@@H]3CCCN3C3CCNCC3)C[C@H]12 [Compound A117, (R)-7-(4-Chloro-2-fluorophenyl)-2-((S)-1-piperidin-4-ylpyrrolidine-2-carbonyl)-1,3,4,11a-tetrahydro-2H,10H-2,4a,10-triazadibenzo[a,d]cycloheptene-5,11-dione] | 16% | > 1 µM |
| CC(C)(C)CC(=O)N1CCN2C(=O)c3cc(-c4ccc(Cl)s4)ccc3NC(=O)C2C1 (stereo not shown) [Compound A129, 7-(5-Chlorothiophen-2-yl)-2-(3,3-dimethylbutyryl)-1,3,4,11a-tetrahydro-2H,10H-2,4a,10-triaza-dibenzo[a,d]cycloheptene-5,11-dione] | 6% | > 1 µM |
| O=C1Nc2ccc(-c3ccc(Cl)c(F)c3)cc2C(=O)N2CCN(C(=O)[C@@H]3CCCN3C3CCNCC3)C[C@H]12 [Compound A102, (R)-7-(4-Chloro-3-fluorophenyl)-2-((S)-1-piperidin-4-ylpyrrolidine-2-carbonyl)-1,3,4,11a-tetrahydro-2H,10H-2,4a,10-triazadibenzo[a,d]cycloheptene-5,11-dione] | 7% | 0.1 to 1 µM |
| CC(C)(C(=O)N1CCN2C(=O)c3cc(-c4ccc(Cl)cc4)ccc3NC(=O)C2C1)c1ccccc1 (stereo not shown) [Compound A46, 7-(4-Chlorophenyl)-2-(2-methyl-2-phenylpropionyl)-1,3,4,11a-tetrahydro-2H,10H-2,4a,10-triaza-dibenzo[a,d]cycloheptene-5,11-dione] |  | > 1 µM |
| CC(C)[C@H](O)C(=O)N1CCN2C(=O)c3cc(-c4ccc(Cl)cc4)ccc3NC(=O)C2C1 (stereo partly drawn) [Compound A74, 7-(4-Chlorophenyl)-2-((S)-2-hydroxy-3-methyl-butyryl)-1,3,4,11a-tetrahydro-2H,10H-2,4a,10-triaza-dibenzo[a,d]cycloheptene-5,11-dione] | -2% | > 1 µM |
| CN1CCN(C(=O)CN2C(=O)[C@H]3CN(C(=O)CC(C)(C)C)CCN3C(=O)c3cc(-c4ccc(Cl)cc4F)ccc32)CC1 [Compound A149] | 15% | > 1 µM |
| O=C1Nc2ccc(-c3ccccc3)cc2C(=O)N2CCN(C(=O)c3cccs3)C[C@H]12 [Compound B15] | 79% |  |
| CC(C)(C)CC(=O)N1CCN2C(=O)c3cc(-c4cccc(F)c4F)ccc3NC(=O)C2C1 (stereo not shown) [Compound A88, 7-(2,3-Difluorophenyl)-2-(3,3-dimethylbutyryl)-1,3,4,11a-tetrahydro-2H,10H-2,4a,10-triaza-dibenzo[a,d]cycloheptene-5,11-dione] | -6% | > 1 µM |
| CC(C)(C)CC(=O)N1CCN2C(=O)c3cc(-c4ccccc4F)ccc3NC(=O)[C@H]2C1 [Compound A7, (R)-2-(3,3-Dimethylbutyryl)-7-(2-fluorophenyl)-1,3,4,11a-tetrahydro-2H,10H-2,4a,10-triaza-dibenzo[a,d]cycloheptene-5,11-dione] |  | > 1 µM |
| CN(C)c1ccc(C(=O)N2CCN3C(=O)c4cc(-c5ccc(Cl)cc5)ccc4NC(=O)[C@H]3C2)cc1 [Compound A9, (R)-7-(4-Chlorophenyl)-2-(4-dimethylamino-benzoyl)-1,3,4,11a-tetrahydro-2H,10H-2,4a,10-triazadibenzo[a,d]cycloheptene-5,11-dione] | 84% |  |
| Cn1cncc1C(=O)N1CCN2C(=O)c3cc(-c4ccc(Cl)cc4F)ccc3NC(=O)C2C1 (stereo not shown) [Compound A67, 7-(4-Chloro-2-fluorophenyl)-2-(3-methyl-3H-imidazole-4-carbonyl)-1,3,4,11a-tetrahydro-2H,10H-2,4a,10-triazadibenzo[a,d]cycloheptene-5,11-dione] | 19% | > 1 µM |
| CC(O)(C(=O)N1CCN2C(=O)c3cc(-c4ccc(Cl)cc4)ccc3NC(=O)C2C1)c1ccccc1 (stereo not shown) [Compound A39, 7-(4-Chlorophenyl)-2-(2-hydroxy-2-phenylpropionyl)-1,3,4,11a-tetrahydro-2H,10H-2,4a,10-triazadibenzo[a.d]cycloheptene-5,11-dione] | 22% | > 1 µM |
| Cc1nc(C(=O)N2CCN3C(=O)c4cc(-c5ccc(Cl)cc5)ccc4NC(=O)C3C2)c(N)s1 (stereo not shown) [Compound A37, 2-(5-Amino-2-methylthiazole-4-carbonyl)-7-(4-chlorophenyl)-1,3,4,11a-tetrahydro-2H,10H-2,4a,10-triazadibenzo[a,d]cycloheptene-5,11-dione] | 66% | > 1 µM |
| CC(C)(C)[C@H](O)C(=O)N1CCN2C(=O)c3cc(-c4ccc(Cl)cc4)ccc3NC(=O)[C@@H]2C1 [Compound A54, (S)-7-(4-Chlorophenyl)-2-((S)-2-hydroxy-3,3-di-methyl-1-oxobutyl)-1,3,4,11a-tetrahydro-2H,10H-2,4a,10-triazadibenzo[a,d]cycloheptene-5,11-dione] | 84% |  |
| O=C1Nc2ccc(-c3ccc(Cl)cc3)cc2C(=O)N2CCN(C(=O)CC3CCCCC3)CC12 (stereo not shown) [Compound A24, 7-(4-Chlorophenyl)-2-(2-cyclohexylacetyl)-1,3,4,11a-tetrahydro-2H,10H-2,4a,10-triaza-dibenzo[a,d]cycloheptene-5,11-dione] | 67% | > 1 µM |
| CC(C)(C)[C@@H](N)C(=O)N1CCN2C(=O)c3cc(-c4ccc(Cl)cc4)ccc3NC(=O)C2C1 (stereo partly drawn) [Compound A53, 2-((R)-2-Amino-3,3-dimethylbutyryl)-7-(4-chloro-phenyl)-1,3,4,11a-tetrahydro-2H,10H-2,4a,10-triazadibenzo[a,d]cycloheptene-5,11-dione] |  | > 1 µM |
| CC(C)(C)[C@H](NC1CCNCC1)C(=O)N1CCN2C(=O)c3cc(-c4ccc(Cl)cc4F)ccc3NC(=O)[C@H]2C1 [Compound 48, (R)-7-(4-Chloro-2-fluorophenyl)-2-[(S)-3,3-dimethyl-2-(piperidin-4-ylamino)butyryl]-1,3,4,11a-tetrahydro-2H,10H-2,4a,10-triazadibenzo[a,d]cycloheptene-5,11-dione] | 2% | 0.1 to 1 µM |
| CC(C)(C)[C@H](O)C(=O)N1CCN2C(=O)c3cc(-c4ccc(Cl)cc4)ccc3NC(=O)[C@H]2C1 [Compound A56, (R)-7-(4-Chlorophenyl)-2-((S)-2-hydroxy-3,3-di-methyl-1-oxobutyl)-1,3,4,11a-tetrahydro-2H,10H-2,4a,10-triazadibenzo[a,d]cycloheptene-5,11-dione] |  | 0.1 to 1 µM |
| CC(C)(C)COC(=O)N1CCN2C(=O)c3cc(-c4ccc(Cl)cc4)ccc3NC(=O)C2C1 (stereo not shown) [Compound A168] | 52% | > 1 µM |
| O=C1Nc2ccc(-c3ccccc3)cc2C(=O)N2CCN(C(=O)C3CCCCC3)C[C@H]12 [Compound B13] | 53% |  |
| O=C1Nc2ccc(-c3ccccc3F)cc2C(=O)N2CCN(C(=O)c3ccc4[nH]nnc4c3)CC12 (stereo not shown) [Compound A14, 2-(1H-Benzotriazole-5-carbonyl)-7-(2-fluorophenyl)-1,3,4,11a-tetrahydro-2H,10H-2,4a,10-triaza-dibenzo[a,d]cycloheptene-5,11-dione] | 38% | > 1 µM |
| CN(C)c1ccc(C(=O)N2CCN3C(=O)c4cc(-c5ccccc5F)ccc4NC(=O)[C@H]3C2)cc1 [Compound B24] | 83% |  |
| O=C1Nc2ccc(-c3cccs3)cc2C(=O)N2CCN(C(=O)[C@@H](O)c3ccccc3)C[C@H]12 [Compound A3, (R)-2-((S)-2-Hydroxy-2-phenylacetyl)-7-thiophen-2-yl-1,3,4,11a-tetrahydro-2H,10H-2,4a,10-triaza-dibenzo[a,d]cycloheptene-5,11-dione] | 86% |  |
